Measured values taken from ChEMBL document CHEMBL1201862, “PubChem BioAssay data set” (2004).
Activity calls are given as the source filed them.

Key:
[1] = biological target: Nucleotide-binding oligomerization domain-containing protein 1 (Homo sapiens, UniProt Q9Y239); assay: blockers of NOD1 pathway activity – revised, SAR follow-up (AID 2333); assay type: functional
[2] = tested on: HEK293; assay: cells; details: Homo sapiens;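 also: cells exposed to compound for 14 hours overnight before viability readout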
[3] = biological target: Tumor necrosis factor (Homo sapiens, UniProt P01375); assay: analog potency on TNFa NF-kB signaling – cell-based, revised, SAR follow-up (AID 2337); assay type: functional
[4] = biological target: Nucleotide-binding oligomerization domain-containing protein 2 (Homo sapiens, UniProt Q9HC29); assay: PubChem AID 2334; assay type: functional
[5] = biological target: Melanin-concentrating hormone receptor 1 (Homo sapiens, UniProt Q99705); assay: Fluorescence-based counterscreen for antagonists of the G-protein coupled receptor 7 (GPR7): cell-based high throughput dose response assay to identify antagonists of the melanin-concentrating hormone receptor 1 (MCHR1).; assay type: functional
[6] = biological target: Bcl-2-like protein 10 (Homo sapiens, UniProt Q9HD36); assay: Bcl-B/TR3 peptide binding disruption – biochemical, fluorescence polarization, FITC-TR3 peptide, selectivity assay for Bfl-1 inhibitor project, primary screen (AID 748);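 also: fluorescence polarization from a fluorescein-labelled TR3 peptide binding purified Bcl-B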
[7] = biological target: T1, Polyadenylate-binding protein 1 (Homo sapiens, UniProt P11940); assay: MLLE domain peptide-binding blockers, IC50 – biochemical, fluorescence polarization, FITC-PAM2 peptide, dose response (AID 602259); assay type: functional; details: read-out: IC50_Mean
[8] = biological target: Protein Rev (Human immunodeficiency virus type 1 group M subtype B (isolate HXB2)(HIV-1), UniProt P04618); assay: blockers of HIV Rev/RRE RNA complex – biochemical, fluorescence polarization, HIV-1, dose response (AID 434976); set-up: species or system Human immunodeficiency virus 1
[9] = biological target: T1, Polyadenylate-binding protein 1; assay: MLLE binding blockers, Cy5 peptide tracer – biochemical, fluorescence polarization, Cy5-PAM2 peptide, secondary, miRNA deadenylation inhibitor project, dose response (AID 602260); assay type: functional; details: read-out: IC50_Mean
[10] = biological target: Female germline-specific tumor suppressor gld-1 (Caenorhabditis elegans, UniProt Q17339); assay: blockers of GLD-1/TGE RNA complex formation – biochemical, fluorescence polarization, C. elegans, dose response (AID 2802);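 also: fluorescence polarization of labeled TGE RNA bound by purified gld-1 protein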
[11] = tested on: Vero; assay: mammalian cell viability reduction – secondary assay, cytotoxicity control for West Nile virus antiviral project, dose response (AID 1650); assay type: functional; details: Chlorocebus sabaeus
[12] = biological target: T2, Short transient receptor potential channel 4 (Mus musculus, UniProt Q9QUQ5); assay: block of DAMGO-driven TRPC4 calcium entry – cell-based, HEK293 TRPC4/mu-opioid, Fluo-4 calcium, dose response (AID 434942); assay type: functional;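 also: potency of inhibitors blocking the TRPC4 calcium response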
T2 sequence (Q9QUQ5 whole entry): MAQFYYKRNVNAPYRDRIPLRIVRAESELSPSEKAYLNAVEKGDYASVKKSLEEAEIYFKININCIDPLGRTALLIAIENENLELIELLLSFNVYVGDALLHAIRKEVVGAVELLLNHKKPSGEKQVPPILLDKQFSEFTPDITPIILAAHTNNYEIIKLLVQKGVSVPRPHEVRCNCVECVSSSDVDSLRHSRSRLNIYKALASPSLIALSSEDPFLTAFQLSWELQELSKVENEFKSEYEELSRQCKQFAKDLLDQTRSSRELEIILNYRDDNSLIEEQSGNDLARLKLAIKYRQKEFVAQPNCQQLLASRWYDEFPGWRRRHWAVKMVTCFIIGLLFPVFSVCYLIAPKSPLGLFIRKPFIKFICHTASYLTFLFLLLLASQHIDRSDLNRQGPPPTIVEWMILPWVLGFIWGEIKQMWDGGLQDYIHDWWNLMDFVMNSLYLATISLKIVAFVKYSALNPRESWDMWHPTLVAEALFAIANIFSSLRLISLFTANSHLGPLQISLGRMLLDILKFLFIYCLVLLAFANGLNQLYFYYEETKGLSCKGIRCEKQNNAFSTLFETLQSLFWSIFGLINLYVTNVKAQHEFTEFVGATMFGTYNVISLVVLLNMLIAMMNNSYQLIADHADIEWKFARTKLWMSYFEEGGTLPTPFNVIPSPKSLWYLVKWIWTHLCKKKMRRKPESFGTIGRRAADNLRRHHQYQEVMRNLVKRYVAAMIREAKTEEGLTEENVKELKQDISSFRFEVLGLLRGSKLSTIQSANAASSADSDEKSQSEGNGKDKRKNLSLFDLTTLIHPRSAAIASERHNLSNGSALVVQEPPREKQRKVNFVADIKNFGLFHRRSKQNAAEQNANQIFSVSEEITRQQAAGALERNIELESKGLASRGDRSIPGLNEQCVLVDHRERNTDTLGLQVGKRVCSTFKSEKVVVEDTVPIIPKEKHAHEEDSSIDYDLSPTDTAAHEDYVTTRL

[13] = biological target: Protein Rev (Human immunodeficiency virus type 1 group M subtype B (isolate WMJ22)(HIV-1), UniProt P05866); assay: inhibitors of Rev protein–RRE RNA complex – biochemical, protein-RNA interaction, dose response (AID 842); set-up: species or system Human immunodeficiency virus 1
[14] = biological target: T3, DNA repair protein RAD52 homolog (Homo sapiens, UniProt P43351); assay type: functional, biochemical
T3 sequence (P43351 whole entry): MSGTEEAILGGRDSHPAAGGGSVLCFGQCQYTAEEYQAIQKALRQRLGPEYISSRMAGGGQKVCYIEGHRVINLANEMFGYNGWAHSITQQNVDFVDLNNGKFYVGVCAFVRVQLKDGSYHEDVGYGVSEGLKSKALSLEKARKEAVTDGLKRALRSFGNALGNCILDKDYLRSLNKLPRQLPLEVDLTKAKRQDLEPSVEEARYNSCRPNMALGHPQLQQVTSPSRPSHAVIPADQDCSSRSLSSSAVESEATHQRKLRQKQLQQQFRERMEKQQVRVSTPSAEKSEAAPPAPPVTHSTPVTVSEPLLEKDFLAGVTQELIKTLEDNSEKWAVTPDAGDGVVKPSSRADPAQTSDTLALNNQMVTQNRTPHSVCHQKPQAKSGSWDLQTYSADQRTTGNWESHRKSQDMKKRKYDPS

[15] = biological target: T4, DNA repair and recombination protein RAD54-like (Homo sapiens, UniProt Q92698); assay: RAD54 Holliday junction migration blockers – biochemical, fluorescence, cherry-picked samples, dose series, confirmation (AID 651657); assay type: functional
T4 sequence (Q92698 whole entry): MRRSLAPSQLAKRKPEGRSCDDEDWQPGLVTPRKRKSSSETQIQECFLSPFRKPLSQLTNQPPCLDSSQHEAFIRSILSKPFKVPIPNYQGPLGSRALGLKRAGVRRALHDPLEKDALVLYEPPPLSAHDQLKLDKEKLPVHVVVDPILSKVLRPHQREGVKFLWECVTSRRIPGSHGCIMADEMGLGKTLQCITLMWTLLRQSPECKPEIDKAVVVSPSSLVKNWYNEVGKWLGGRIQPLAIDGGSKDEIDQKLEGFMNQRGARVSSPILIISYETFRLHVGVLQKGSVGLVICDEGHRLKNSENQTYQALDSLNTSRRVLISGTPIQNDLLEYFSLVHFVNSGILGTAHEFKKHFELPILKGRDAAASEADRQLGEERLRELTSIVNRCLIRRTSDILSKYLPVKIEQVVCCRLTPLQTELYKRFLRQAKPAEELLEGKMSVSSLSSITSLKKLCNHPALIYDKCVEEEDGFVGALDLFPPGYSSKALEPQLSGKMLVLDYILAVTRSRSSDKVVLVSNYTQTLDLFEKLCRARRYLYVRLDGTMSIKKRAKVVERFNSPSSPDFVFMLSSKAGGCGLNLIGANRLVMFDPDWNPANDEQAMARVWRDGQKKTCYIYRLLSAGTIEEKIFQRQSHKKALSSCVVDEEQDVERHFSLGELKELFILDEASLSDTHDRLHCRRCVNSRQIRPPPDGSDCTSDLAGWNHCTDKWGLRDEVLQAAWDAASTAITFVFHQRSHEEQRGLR

[16] = biological target: T5, Eukaryotic translation initiation factor 2-alpha kinase 3 (Homo sapiens, UniProt Q9NZJ5); assay: Counterscreen assay for PERK inhibitors: Dose response cell-based high throughput screening assay to measure inhibition of PERK at 6 hours. [Related pubchem assays: 1522, 1416 ]; assay type: functional
[17] = biological target: T5, Eukaryotic translation initiation factor 2-alpha kinase 3; assay: Dose response cell-based high-throughput screening assay to measure PERK inhibition. [Related pubchem assays: 1416 ]; assay type: functional
[18] = biological target: Protein phosphatase methylesterase 1 (Homo sapiens, UniProt Q9Y570); assay: endogenous PME-1 and serine hydrolase inhibition – cell lysate, mouse brain cytosol, FP-rhodamine, gel ABPP, selectivity assay for PME-1 inhibitor project, dose response, panel member PME-1 Assay Panel member description: Inhibition of endogenously expressed PME-1 (AID 2366)
Protein phosphatase methylesterase 1, sequence (Q9Y570 whole entry): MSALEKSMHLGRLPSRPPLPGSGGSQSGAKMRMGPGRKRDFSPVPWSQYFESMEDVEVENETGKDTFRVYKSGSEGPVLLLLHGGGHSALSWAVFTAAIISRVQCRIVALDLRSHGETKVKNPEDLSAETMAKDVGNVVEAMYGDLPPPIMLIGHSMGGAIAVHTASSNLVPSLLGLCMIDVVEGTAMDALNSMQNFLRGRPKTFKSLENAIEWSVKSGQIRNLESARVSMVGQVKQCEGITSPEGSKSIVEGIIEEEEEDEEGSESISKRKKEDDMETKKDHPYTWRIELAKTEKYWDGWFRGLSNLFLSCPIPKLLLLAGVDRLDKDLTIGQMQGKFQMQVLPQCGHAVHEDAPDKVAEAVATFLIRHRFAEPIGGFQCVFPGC

T1 sequence (P11940 whole entry, the tested form may be a part): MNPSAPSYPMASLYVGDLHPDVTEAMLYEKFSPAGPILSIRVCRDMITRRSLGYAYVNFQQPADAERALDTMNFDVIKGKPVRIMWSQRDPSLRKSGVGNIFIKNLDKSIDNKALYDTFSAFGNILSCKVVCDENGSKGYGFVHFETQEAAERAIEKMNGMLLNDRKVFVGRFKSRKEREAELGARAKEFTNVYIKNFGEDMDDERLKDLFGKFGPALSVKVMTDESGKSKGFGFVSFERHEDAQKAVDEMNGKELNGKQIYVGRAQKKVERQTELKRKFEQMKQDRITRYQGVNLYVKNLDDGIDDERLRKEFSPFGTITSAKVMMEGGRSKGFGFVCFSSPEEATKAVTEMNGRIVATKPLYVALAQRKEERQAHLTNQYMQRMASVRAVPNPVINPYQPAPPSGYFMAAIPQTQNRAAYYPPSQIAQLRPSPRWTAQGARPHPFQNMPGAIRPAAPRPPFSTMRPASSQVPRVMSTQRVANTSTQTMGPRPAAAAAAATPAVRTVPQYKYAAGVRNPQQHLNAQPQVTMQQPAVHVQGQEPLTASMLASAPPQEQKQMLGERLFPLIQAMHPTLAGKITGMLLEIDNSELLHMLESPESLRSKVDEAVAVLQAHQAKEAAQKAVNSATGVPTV
T5 sequence (Q9NZJ5 whole entry): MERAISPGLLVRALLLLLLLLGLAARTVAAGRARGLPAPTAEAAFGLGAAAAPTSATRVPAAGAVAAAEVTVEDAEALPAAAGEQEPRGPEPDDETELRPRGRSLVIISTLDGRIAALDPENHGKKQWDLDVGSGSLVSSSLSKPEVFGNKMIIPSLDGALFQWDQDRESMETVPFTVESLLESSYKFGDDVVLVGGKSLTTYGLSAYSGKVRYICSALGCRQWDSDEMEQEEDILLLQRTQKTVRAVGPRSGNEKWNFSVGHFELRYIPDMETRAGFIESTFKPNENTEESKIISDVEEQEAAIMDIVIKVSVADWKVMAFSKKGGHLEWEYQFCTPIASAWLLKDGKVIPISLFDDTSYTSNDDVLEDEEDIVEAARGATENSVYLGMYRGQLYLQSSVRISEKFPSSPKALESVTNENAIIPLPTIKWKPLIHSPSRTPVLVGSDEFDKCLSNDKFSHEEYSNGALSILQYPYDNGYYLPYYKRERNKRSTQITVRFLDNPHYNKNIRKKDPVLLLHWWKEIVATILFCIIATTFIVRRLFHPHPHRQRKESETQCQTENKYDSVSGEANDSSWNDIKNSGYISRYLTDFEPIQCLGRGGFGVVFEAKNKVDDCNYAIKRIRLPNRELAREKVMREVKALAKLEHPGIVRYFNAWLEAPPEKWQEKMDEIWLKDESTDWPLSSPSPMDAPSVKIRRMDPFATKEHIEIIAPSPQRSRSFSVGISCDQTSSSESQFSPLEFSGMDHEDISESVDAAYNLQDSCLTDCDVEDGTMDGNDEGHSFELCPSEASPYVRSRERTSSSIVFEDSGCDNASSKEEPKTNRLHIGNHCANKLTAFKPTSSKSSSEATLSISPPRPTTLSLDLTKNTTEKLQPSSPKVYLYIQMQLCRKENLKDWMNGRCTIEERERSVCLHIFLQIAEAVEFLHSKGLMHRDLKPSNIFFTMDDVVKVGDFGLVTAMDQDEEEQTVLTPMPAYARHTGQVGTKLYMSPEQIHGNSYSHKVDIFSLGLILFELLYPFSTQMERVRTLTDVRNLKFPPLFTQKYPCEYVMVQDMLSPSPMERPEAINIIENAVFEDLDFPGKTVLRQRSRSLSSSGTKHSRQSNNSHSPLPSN
Protein Rev (Human immunodeficiency virus type 1 group M subtype B (isolate WMJ22)(HIV-1), UniProt P05866), sequence (P05866 whole entry): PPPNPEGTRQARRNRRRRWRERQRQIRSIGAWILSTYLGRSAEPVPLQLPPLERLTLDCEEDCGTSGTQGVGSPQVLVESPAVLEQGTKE
Nucleotide-binding oligomerization domain-containing protein 1, sequence (Q9Y239 whole entry, the tested form may be a part): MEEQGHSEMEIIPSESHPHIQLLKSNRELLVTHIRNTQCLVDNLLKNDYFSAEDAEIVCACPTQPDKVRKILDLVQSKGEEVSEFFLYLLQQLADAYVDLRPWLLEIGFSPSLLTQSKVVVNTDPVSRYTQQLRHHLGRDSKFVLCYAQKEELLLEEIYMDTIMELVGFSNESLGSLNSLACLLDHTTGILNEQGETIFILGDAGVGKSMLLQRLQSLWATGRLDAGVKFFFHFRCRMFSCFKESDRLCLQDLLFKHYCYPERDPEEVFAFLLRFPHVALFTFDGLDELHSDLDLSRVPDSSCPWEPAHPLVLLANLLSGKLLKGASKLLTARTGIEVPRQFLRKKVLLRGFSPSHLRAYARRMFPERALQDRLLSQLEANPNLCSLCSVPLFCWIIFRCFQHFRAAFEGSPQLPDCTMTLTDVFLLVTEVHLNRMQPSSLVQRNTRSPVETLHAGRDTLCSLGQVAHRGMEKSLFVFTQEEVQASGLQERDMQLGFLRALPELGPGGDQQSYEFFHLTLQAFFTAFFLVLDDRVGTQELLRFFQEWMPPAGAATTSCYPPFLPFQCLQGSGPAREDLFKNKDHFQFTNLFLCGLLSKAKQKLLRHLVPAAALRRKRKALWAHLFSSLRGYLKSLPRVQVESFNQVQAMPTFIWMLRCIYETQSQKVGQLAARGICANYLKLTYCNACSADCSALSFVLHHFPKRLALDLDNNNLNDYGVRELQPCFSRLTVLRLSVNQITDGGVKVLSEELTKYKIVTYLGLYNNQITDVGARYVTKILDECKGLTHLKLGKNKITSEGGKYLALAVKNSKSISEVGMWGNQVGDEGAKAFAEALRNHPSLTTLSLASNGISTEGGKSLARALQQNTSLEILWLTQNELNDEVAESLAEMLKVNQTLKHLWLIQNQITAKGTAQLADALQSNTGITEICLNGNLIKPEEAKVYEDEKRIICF
Bcl-2-like protein 10, sequence (Q9HD36 whole entry, the tested form may be a part): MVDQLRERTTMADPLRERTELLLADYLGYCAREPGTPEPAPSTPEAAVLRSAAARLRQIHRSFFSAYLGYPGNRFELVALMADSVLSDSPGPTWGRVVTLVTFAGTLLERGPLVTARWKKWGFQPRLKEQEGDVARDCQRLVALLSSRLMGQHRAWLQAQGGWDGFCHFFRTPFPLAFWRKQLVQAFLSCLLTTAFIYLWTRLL
Melanin-concentrating hormone receptor 1, sequence (Q99705 whole entry): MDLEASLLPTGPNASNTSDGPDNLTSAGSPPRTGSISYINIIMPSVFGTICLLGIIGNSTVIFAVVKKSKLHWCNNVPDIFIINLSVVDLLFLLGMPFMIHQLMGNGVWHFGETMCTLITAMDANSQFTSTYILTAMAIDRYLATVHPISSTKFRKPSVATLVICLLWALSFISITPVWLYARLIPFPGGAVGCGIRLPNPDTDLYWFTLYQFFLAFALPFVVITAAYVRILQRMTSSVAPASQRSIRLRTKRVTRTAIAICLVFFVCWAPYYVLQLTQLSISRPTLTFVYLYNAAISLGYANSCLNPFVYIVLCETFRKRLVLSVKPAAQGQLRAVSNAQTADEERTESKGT
Tumor necrosis factor, sequence (P01375 whole entry, the tested form may be a part): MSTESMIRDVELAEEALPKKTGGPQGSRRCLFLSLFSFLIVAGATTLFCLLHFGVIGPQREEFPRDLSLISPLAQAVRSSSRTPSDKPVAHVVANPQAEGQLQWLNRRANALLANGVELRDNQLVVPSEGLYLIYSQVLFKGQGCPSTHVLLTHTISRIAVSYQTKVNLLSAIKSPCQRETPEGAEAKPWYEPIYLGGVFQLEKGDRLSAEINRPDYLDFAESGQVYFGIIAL
Female germline-specific tumor suppressor gld-1, sequence (Q17339 whole entry): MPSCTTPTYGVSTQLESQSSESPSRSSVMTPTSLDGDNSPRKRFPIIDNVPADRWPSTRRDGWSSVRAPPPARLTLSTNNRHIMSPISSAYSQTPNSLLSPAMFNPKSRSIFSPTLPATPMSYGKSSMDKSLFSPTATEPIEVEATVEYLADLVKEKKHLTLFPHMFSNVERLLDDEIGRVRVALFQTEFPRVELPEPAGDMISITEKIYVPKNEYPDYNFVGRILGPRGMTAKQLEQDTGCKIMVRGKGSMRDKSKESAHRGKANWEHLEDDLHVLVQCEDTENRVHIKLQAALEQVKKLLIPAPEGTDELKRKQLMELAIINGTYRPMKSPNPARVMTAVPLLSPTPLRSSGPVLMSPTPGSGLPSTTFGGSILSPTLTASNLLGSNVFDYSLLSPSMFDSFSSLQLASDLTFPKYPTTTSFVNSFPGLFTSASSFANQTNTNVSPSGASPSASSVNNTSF
Protein Rev (Human immunodeficiency virus type 1 group M subtype B (isolate HXB2)(HIV-1), UniProt P04618), sequence (P04618 whole entry): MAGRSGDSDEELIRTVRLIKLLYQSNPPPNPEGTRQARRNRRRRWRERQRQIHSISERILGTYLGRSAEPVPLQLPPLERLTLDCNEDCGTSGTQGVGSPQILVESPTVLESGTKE

For `CCOC(=O)c1c(NC(=O)CN2CCOCC2)sc2c1CC(C)(C)OC2`, the IC50 [1] was > 20 µM (inactive), the IC50 [2] was > 20 µM (inactive) and the IC50 [3] was > 20 µM (inactive). The IC50 [4] was > 20 µM (inactive).

With `CCN(CC)CCNC(=O)CCc1c(C)nc2c(c(C)nn2-c2ccc(C)cc2)c1C` the IC50 [5] was 11.2 µM (not active).

For `O=C(C[n+]1ccc(C(=O)NN=Cc2ccc(O)cc2)cc1)c1ccccc1`, the IC50 [6] was 70.4 µM (inactive).

With `Nc1nnnn1/N=C/c1cc(Cl)ccc1O` the IC50 [7] was 38.8 µM (inactive), the IC50 [8] was > 75.3 µM (not active) and the IC50 [9] was 35.1 µM (inactive). The IC50 [10] was 6.2 µM (active).

For `CCc1ccc2nc3nc(C)cc(C)c3c(N)c2c1`, the CC50 [11] was 21.6 µM (active), the EC50 [12] was 3.35 µM (active) and the IC50 [13] was 58.8 µM (not active). For the same compound, the AC50 [14] was 3.58 µM (active) and the AC50 [15] was 9.59 µM (active).

For `Cn1c(=O)c2c(SCc3ccccc3)nc(-c3ccco3)nc2n(C)c1=O`, the EC50 [16] was > 55.7 µM (not active) and the EC50 [17] was > 55.7 µM (not active).

With `CS(=O)(=O)/C(C#N)=C/c1cccn1S(=O)(=O)c1cccc2ccccc12` the IC50 [18] was > 20 µM (inactive).
